These results are taken from BindingDB's records for doi:10.1016/s0960-894x(03)00298-1 (Cubist Pharmaceutical, 2003).

Molecules are shown by their SMILES.

Assay [1] concerns the target Methionyl-tRNA synthetase (Enterococcus faecalis). Kind of assay: Inhibitory activity against Enterococci faecalis methionyl-tRNA synthetase (EfMetRS).
For assay [2], the target named is Methionyl-tRNA synthetase (Staphylococcus aureus). Kind of assay: Inhibitory activity against Staphylococcus aureus methionyl-tRNA synthetase (SaMetRS).
For assay [3] the target is unchanged. Described as above. This is another data set of the same source.
Assay [4] has the same target. The assay is described as above. This is another data set of the same source.

For orientation: IC50 means the concentration at which inhibition is half-maximal. Higher therefore signals weaker potency. Consider `O=C(NCc1nnn[nH]1)c1cc(-c2ccc(-c3ccc(Cl)cc3Cl)cc2)n(-c2cccnc2)n1` [5-(2',4'-Dichloro-biphenyl-4-yl)-1-pyridin-3-yl-1H-pyrazole-3-carboxylic acid (1H-tetrazol-5-ylmethyl)-amide], for which the IC50 in assay [1] stood at 3.7 µM; in assay [2], 0.13 µM.

On to `O=C(O)c1cc(-c2ccc(-c3ccccc3)cc2)n(-c2ccc(Cl)cc2Cl)n1` [5-Biphenyl-4-yl-1-(2,4-dichloro-phenyl)-1H-pyrazole-3-carboxylic acid], for which, in assay [3], the IC50 was determined as 40.9 µM.

The molecule `O=C(O)c1cc(-c2ccc(-c3ccc(Cl)cc3Cl)cc2)n(Cc2ccncc2)n1` [5-(2',4'-Dichloro-biphenyl-4-yl)-1-pyridin-4-ylmethyl-1H-pyrazole-3-carboxylic acid] had a concentration for half-maximal inhibition (IC50) in assay [3] of 0.5 µM.

Turning to `COc1ccccc1-n1nc(C(=O)O)cc1-c1ccc(-c2ccc(Cl)cc2Cl)cc1` [5-(2',4'-Dichloro-biphenyl-4-yl)-1-(2-methoxy-phenyl)-1H-pyrazole-3-carboxylic acid], the IC50 in assay [1] amounted to 17.8 µM; in assay [4], 1.51 µM.

For the molecule `O=C(O)c1cc(-c2ccc(-c3ccc(Cl)cc3Cl)cc2)n(CCO)n1` [5-(2',4'-Dichloro-biphenyl-4-yl)-1-(2-hydroxy-ethyl)-1H-pyrazole-3-carboxylic acid], the IC50 in assay [1] was 11.4 µM; in assay [2] it was 4.46 µM.

For the molecule `NC(=O)c1cc(-c2ccc(-c3ccc(Cl)cc3Cl)cc2)n(-c2ccccn2)n1` [5-(2',4'-Dichloro-biphenyl-4-yl)-1-pyridin-2-yl-1H-pyrazole-3-carboxylic acid amide], in assay [2], 2.95 µM corresponded to half-maximal inhibition (IC50).

As for `O=C(O)c1cc(-c2ccc(-c3ccc(Cl)cc3Cl)cc2)n(-c2ccccn2)n1` [5-(2',4'-Dichloro-biphenyl-4-yl)-1-pyridin-2-yl-1H-pyrazole-3-carboxylic acid], the values for the concentration for half-maximal inhibition (IC50) in assay [1] and in assay [2] were 1.93 µM and 0.63 µM, respectively.

`CCn1nc(C(=O)O)cc1-c1ccc(-c2ccc(Cl)cc2Cl)cc1` [5-(2',4'-Dichloro-biphenyl-4-yl)-1-ethyl-1H-pyrazole-3-carboxylic acid]: the 50% inhibitory concentration (IC50) in assay [4] came out at 1.02 µM.

The molecule `O=C(O)Cn1nc(C(=O)O)cc1-c1ccc(-c2ccc(Cl)cc2Cl)cc1` [1-Carboxymethyl-5-(2',4'-dichloro-biphenyl-4-yl)-1H-pyrazole-3-carboxylic acid] came in with an IC50 in assay [4] of 3.42 µM.

In assay [3], `O=C(O)c1cc(-c2ccc(-c3ccc(Cl)cc3Cl)cc2)n(Cc2cccnc2)n1` [5-(2',4'-Dichloro-biphenyl-4-yl)-1-pyridin-3-ylmethyl-1H-pyrazole-3-carboxylic acid] came in with an IC50 of 0.66 µM.

`O=C(O)c1cc(-c2ccc(-c3ccc(Cl)cc3Cl)cc2)n(-c2ccc(Cl)cc2Cl)n1` [5-(2',4'-Dichloro-biphenyl-4-yl)-1-(2,4-dichloro-phenyl)-1H-pyrazole-3-carboxylic acid]: the IC50 in assay [3] worked out at 4.88 µM; in assay [1], 8.99 µM.

Turning to `O=C(O)c1cc(-c2ccc(-c3ccc(F)c(Cl)c3)cc2)n(-c2ccc(Cl)cc2Cl)n1` [5-(3'-Chloro-4'-fluoro-biphenyl-4-yl)-1-(2,4-dichloro-phenyl)-1H-pyrazole-3-carboxylic acid], the IC50 in assay [3] stood at 17.2 µM.

In assay [3], `O=C(O)c1cc(-c2ccc(-c3ccc(Cl)cc3Cl)cc2)n(-c2ccccc2)n1` [5-(2',4'-Dichloro-biphenyl-4-yl)-1-phenyl-1H-pyrazole-3-carboxylic acid] gave an IC50 of 5.47 µM.

For the molecule `O=C(O)c1cc(-c2ccc(-c3ccc(Cl)cc3Cl)cc2)nn1Cc1ccccn1` [5-(2',4'-Dichloro-biphenyl-4-yl)-2-pyridin-2-ylmethyl-2H-pyrazole-3-carboxylic acid], the IC50 in assay [3] was 2.68 µM.

For the molecule `O=C(O)c1cc(-c2ccc(-c3ccc(Cl)cc3Cl)cc2)n(-c2cccnc2)n1` [5-(2',4'-Dichloro-biphenyl-4-yl)-1-pyridin-3-yl-1H-pyrazole-3-carboxylic acid], 0.3 µM corresponded to half-maximal inhibition in assay [2] (IC50).

With `O=C(O)c1cc(-c2ccc(-c3ccc(Cl)cc3Cl)cc2)n(Cc2ccccc2)n1` [1-Benzyl-5-(2',4'-dichloro-biphenyl-4-yl)-1H-pyrazole-3-carboxylic acid], the 50% inhibitory concentration (IC50) in assay [1] was determined as 29.9 µM; in assay [4], 3.94 µM.

`COc1ccc(-n2nc(C(=O)O)cc2-c2ccc(-c3ccc(Cl)cc3Cl)cc2)cc1` [5-(2',4'-Dichloro-biphenyl-4-yl)-1-(4-methoxy-phenyl)-1H-pyrazole-3-carboxylic acid]: in assay [4], 10.5 µM corresponded to half-maximal inhibition (IC50).
